The record followed here is patent US20240368177A1, “5-AMINO-6,8-DIHYDRO-1H-FURO[3,4-d]PYRROLO[3,2-b]PYRIDINE-2-CARBOXAMIDE DERIVATIVES AS MTA-COOPERATIVE INHIBITORS OF PRMT5” (BeiGene Switzerland GmbH, priority 2023, published 2024).

What is called IC50 is the concentration that gives 50% inhibition.

Experiment [1] deals with HCT116-mock-RNA-KO. The experiment can be described thus: Cell killing in HCT116 isogenic pair (Cell Titer-Glo viability), mock knock-out cells with MTAP wildtype genotype. The settings on record: Homo sapiens, HCT-116, 144 h, 6 days incubation, 0-10 μM. The class given is cell-based, human. In short, it runs like this: (§1)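 HCT116 MTAP-knockout or mock-knockout (MTAP wildtype) cells in RPMI 1640 with 10% FBS were seeded overnight, then exposed to test compound at 0–10 μM final for 6 days at 37° C. Viability was measured by CellTiter-Glo luminescence and IC50 was fitted.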

Experiment [2] concerns HCT116-MTAP-KO. The experiment can be described thus: Cell killing in HCT116 isogenic pair (Cell Titer-Glo viability), MTAP knock-out cells. The class given is cell-based, human. The settings on record: Homo sapiens, HCT-116, 144 h, 6 days incubation, 0-10 μM, * = more than 50% viability inhibition at tested concentration without a full curve. In short, it runs like this: as §1
(Cellular ATP, detected with luciferase, serves as a proxy for viable cell number.)

As for `C[C@H](c1ncccn1)N(Cc1ccc(C2CC2)cn1)C(=O)c1cc2nc(N)c3c(c2[nH]1)COC3` [Example 48, (R)-5-amino-N-((5-cyclopropylpyridin-2-yl)methyl)-N-(1-(pyrimidin-2-yl)ethyl)-6,8-dihydro-1H-furo[3,4-d]pyrrolo[3,2-b]pyridine-2-carboxamide], the IC50 was determined as 625 nM in experiment [1] and 8.4 nM in experiment [2].
For `C[C@@H](c1c(F)cc(Br)cc1F)N(C)C(=O)c1cc2nc(N)c3c(c2[nH]1)COC3` [Example 122, (S)-5-amino-N-(1-(4-bromo-2,6-difluorophenyl)ethyl)-N-methyl-6,8-dihydro-1H-furo[3,4-d]pyrrolo[3,2-b]pyridine-2-carboxamide], the IC50 in experiment [1] worked out at 5780 nM; in experiment [2] it was 2220 nM.
On the same counts, the results for `CN(C(=O)c1cc2nc(N)c3c(c2[nH]1)COC3)[C@@H]1COCc2cc(C(F)(F)F)cnc21` [Example 164, (S)-5-amino-N-methyl-N-(3-(trifluoromethyl)-7,8-dihydro-5H-pyrano[4,3-b]pyridin-8-yl)-6,8-dihydro-1H-furo[3,4-d]pyrrolo[3,2-b]pyridine-2-carboxamide] are over 10000 nM and 145 nM.
For `Cc1cc([C@H](C)N(C)C(=O)c2cc3nc(N)c4c(c3[nH]2)COC4)c(F)cc1C1CC1` [Example 152, (S)-5-amino-N-(1-(4-cyclopropyl-2-fluoro-5-methylphenyl)ethyl)-N-methyl-6,8-dihydro-1H-furo[3,4-d]pyrrolo[3,2-b]pyridine-2-carboxamide], in that order: over 10000 nM and 1280 nM.
With `COCCN(C(=O)c1cc2nc(N)c3c(c2[nH]1)COC3)[C@@H](C)c1ncc(C(F)(F)F)cc1F` [Example 158, (S)-5-amino-N-(1-(3-fluoro-5-(trifluoromethyl)pyridin-2-yl)ethyl)-N-(2-methoxyethyl)-6,8-dihydro-1H-furo[3,4-d]pyrrolo[3,2-b]pyridine-2-carboxamide], the IC50 in experiment [1] was over 10000 nM; in experiment [2] it was 2020 nM.
Regarding `CCN(C(=O)c1cc2nc(N)c3c(c2[nH]1)COC3)[C@H](C)c1ccc(C2CC2)cc1F` [Example 177, (R)-5-amino-N-(1-(4-cyclopropyl-2-fluorophenyl)ethyl)-N-ethyl-6,8-dihydro-1H-furo[3,4-d]pyrrolo[3,2-b]pyridine-2-carboxamide], the IC50 turned out to be 2690 nM in experiment [1] and 74 nM in experiment [2].
For `CCN(C(=O)c1cc2nc(N)c3c(c2[nH]1)CO[C@@H]3C)[C@@H](C)c1ccc(C(F)(F)F)cc1F` [Example 127, (R)-5-amino-N-ethyl-N—((S)-1-(2-fluoro-4-(trifluoromethyl)phenyl)ethyl)-6-methyl-6,8-dihydro-1H-furo[3,4-d]pyrrolo[3,2-b]pyridine-2-carboxamide], in that order: 5900 nM and 236 nM.
As for `Nc1nc2cc(C(=O)N(Cc3c(F)cccc3F)CC3CC3)[nH]c2c2c1COC2` [Example 33, 5-amino-N-(cyclopropylmethyl)-N-(2,6-difluorobenzyl)-6,8-dihydro-1H-furo[3,4-d]pyrrolo[3,2-b]pyridine-2-carboxamide], the results for the IC50 in experiment [1] and in experiment [2] were over 10000 nM and 210 nM, respectively.
For `CCN(C(=O)c1cc2nc(N)c3c(c2[nH]1)COC3)[C@@H](C)c1ncc(C2CC2)cc1F` [Example 121, (S)-5-amino-N-(1-(5-cyclopropyl-3-fluoropyridin-2-yl)ethyl)-N-ethyl-6,8-dihydro-1H-furo[3,4-d]pyrrolo[3,2-b]pyridine-2-carboxamide], in that order: over 10000 nM and 586 nM.
Consider `C[C@H]1OCc2c1c(N)nc1cc(C(=O)N(C)[C@@H]3COC4(CC4)c4cc(C(F)(F)F)ccc43)[nH]c21` [Example 165, (R)-5-amino-N,6-dimethyl-N—((S)-7′-(trifluoromethyl)spiro[cyclopropane-1,1′-isochroman]-4′-yl)-6,8-dihydro-1H-furo[3,4-d]pyrrolo[3,2-b]pyridine-2-carboxamide], for which the IC50 came out at 2570 nM in experiment [1] and 17 nM in experiment [2].
On the same counts, the results for `Nc1nc2cc(C(=O)N(Cc3ccc(-c4ccncc4)cn3)Cc3c(F)cccc3F)[nH]c2c2c1COC2` [Example 29, N-([3,4′-bipyridin]-6-ylmethyl)-5-amino-N-(2,6-difluorobenzyl)-6,8-dihydro-1H-furo[3,4-d]pyrrolo[3,2-b]pyridine-2-carboxamide] are 81 nM and 1.3 nM.
For `C[C@H]1OCc2c1c(N)nc1cc(C(=O)N(C)[C@H]3COC4(CC4)c4cc(C(F)(F)F)cc(F)c43)[nH]c21` [Example 169, (R)-5-amino-N—((R)-5′-fluoro-7′-(trifluoromethyl)spiro[cyclopropane-1,1′-isochroman]-4′-yl)-N,6-dimethyl-6,8-dihydro-1H-furo[3,4-d]pyrrolo[3,2-b]pyridine-2-carboxamide], in that order: 2110 nM and 565 nM.
For `CN(C(=O)c1cc2nc(N)c3c(c2[nH]1)COC3)[C@@H]1COC2(CC2)c2cc(C(F)(F)F)ccc21` [Example 91, (S)-5-amino-N-methyl-N-(7′-(trifluoromethyl)spiro[cyclopropane-1,1′-isochroman]-4′-yl)-6,8-dihydro-1H-furo[3,4-d]pyrrolo[3,2-b]pyridine-2-carboxamide], the IC50 in experiment [1] was found to be 3880 nM; in experiment [2], 32 nM.
On the same counts, the results for `C[C@H]1OCc2c1c(N)nc1cc(C(=O)N(Cc3ccc(Br)cn3)Cc3ncccc3F)[nH]c21` [Example 50, (R)-5-amino-N-((5-bromopyridin-2-yl)methyl)-N-((3-fluoropyridin-2-yl)methyl)-6-methyl-6,8-dihydro-1H-furo[3,4-d]pyrrolo[3,2-b]pyridine-2-carboxamide] are 1360 nM and 8.6 nM.
Regarding `CO[C@@H]1CCOC[C@H]1N(Cc1ccc(-c2ccccc2)cn1)C(=O)c1cc2nc(N)c3c(c2[nH]1)COC3` [Example 27, 5-amino-N-((3R,4R)-4-methoxytetrahydro-2H-pyran-3-yl)-N-((5-phenylpyridin-2-yl)methyl)-6,8-dihydro-1H-furo[3,4-d]pyrrolo[3,2-b]pyridine-2-carboxamide], the IC50 in experiment [1] is 284 nM; in experiment [2] it was 2.4 nM.
On the same counts, the results for `Nc1nc2cc(C(=O)N(Cc3ccc(C(F)(F)F)nn3)Cc3c(F)cccc3F)[nH]c2c2c1COC2` [Example 37, 5-amino-N-(2,6-difluorobenzyl)-N-((6-(trifluoromethyl)pyridazin-3-yl)methyl)-6,8-dihydro-1H-furo[3,4-d]pyrrolo[3,2-b]pyridine-2-carboxamide] are 1680 nM and 13 nM.
On the same counts, the results for `Nc1nc2cc(C(=O)N(Cc3c(F)cccc3F)[C@@H]3CCCc4cccnc43)[nH]c2c2c1COC2` [Example 5, (R)-5-amino-N-(2,6-difluorobenzyl)-N-(5,6,7,8-tetrahydroquinolin-8-yl)-6,8-dihydro-1H-furo[3,4-d]pyrrolo[3,2-b]pyridine-2-carboxamide] are 76 nM and 4 nM.
On the same counts, the results for `CCN(C(=O)c1cc2nc(N)c3c(c2[nH]1)COC3)[C@H](C)c1ncc(C2CC2)cc1F` [Example 120, (R)-5-amino-N-(1-(5-cyclopropyl-3-fluoropyridin-2-yl)ethyl)-N-ethyl-6,8-dihydro-1H-furo[3,4-d]pyrrolo[3,2-b]pyridine-2-carboxamide] are 992 nM and 5.6 nM.
For the compound `COC[C@@H](C)N(Cc1ncc(C(F)(F)F)cc1F)C(=O)c1cc2nc(N)c3c(c2[nH]1)COC3` [Example 44, (R)-5-amino-N-((3-fluoro-5-(trifluoromethyl)pyridin-2-yl)methyl)-N-(1-methoxypropan-2-yl)-6,8-dihydro-1H-furo[3,4-d]pyrrolo[3,2-b]pyridine-2-carboxamide], the figures for the half-inhibitory concentration (IC50) in experiment [1] and in experiment [2] were 568 nM and 8.2 nM, respectively.
For `CO[C@@H]1CCOC[C@H]1N(Cc1ccc(-c2c(F)cncc2F)cn1)C(=O)c1cc2nc(N)c3c(c2[nH]1)COC3` [Example 15, 5-amino-N-((3′,5′-difluoro-[3,4′-bipyridin]-6-yl)methyl)-N-((3R,4R)-4-methoxytetrahydro-2H-pyran-3-yl)-6,8-dihydro-1H-furo[3,4-d]pyrrolo[3,2-b]pyridine-2-carboxamide], in that order: 225 nM and 8.1 nM.
On the same counts, the results for `CC[C@@H](C)N(Cc1ccc(C2CC2)c(C)n1)C(=O)c1cc2nc(N)c3c(c2[nH]1)COC3` [Example 108, (R)-5-amino-N-(sec-butyl)-N-((5-cyclopropyl-6-methylpyridin-2-yl)methyl)-6,8-dihydro-1H-furo[3,4-d]pyrrolo[3,2-b]pyridine-2-carboxamide] are 3420 nM and 31 nM.
In the case of `C[C@H]1OCc2c1c(N)nc1cc(C(=O)N(C)[C@@H]3COCc4cc(Br)ccc43)[nH]c21` [Example 72, (R)-5-amino-N—((S)-7-bromoisochroman-4-yl)-N,6-dimethyl-6,8-dihydro-1H-furo[3,4-d]pyrrolo[3,2-b]pyridine-2-carboxamide], the IC50 in experiment [1] stood at 1010 nM; in experiment [2], 8.2 nM.
For `C[C@@H](c1ccc(C2CC2)cc1F)N(C)C(=O)c1cc2nc(N)c3c(c2[nH]1)COC3` [Example 174, (S)-5-amino-N-(1-(4-cyclopropyl-2-fluorophenyl)ethyl)-N-methyl-6,8-dihydro-1H-furo[3,4-d]pyrrolo[3,2-b]pyridine-2-carboxamide], in that order: 6070 nM and 478 nM.
Regarding `C[C@H]1OCc2c1c(N)nc1cc(C(=O)N(C)[C@@H]3COC4(CC4)c4cc(C5CC5)ccc43)[nH]c21` [Example 171, (R)-5-amino-N—((S)-7′-cyclopropylspiro[cyclopropane-1,1′-isochroman]-4′-yl)-N,6-dimethyl-6,8-dihydro-1H-furo[3,4-d]pyrrolo[3,2-b]pyridine-2-carboxamide], the IC50 in experiment [1] came to 3030 nM; in experiment [2], 39 nM.
